Source: patent US10329542B2, “HBV RNAse H purification and enzyme inhibitors” (Saint Louis University, priority 2012, dated 2019)
Read-outs that look alike come from different tables or passages of the source.

Columns and labels:
HIV-1 RNAseH = HIV-1 RNAseH (Human immunodeficiency virus type 1 group M subtype B, UniProt P04585); conditions: read-out: IC50 against the HIV RNAseH; cited from earlier work
[1] = target: T1, HBV genotype D RNAseH (HRHPL) (Hepatitis B virus genotype D subtype ayw, UniProt P03156, INS679M); test: Oligonucleotide-directed RNAseH cleavage assay, HBV genotype D; assay type: biochemical; conditions: for Activity vs. HBV Biochemical vs. gtD: class by concentration giving inhibition (10, 20, 60 μM); for Residual activity at 10 uM, Genotype D: ± standard deviation, 3 to 7 replicates
T1 construct: HRHPL contains HBV genotype D (Genbank V01460) polymerase residues 684-845; made in house; host or cells: E. coli BL21 codon+

HBV genotype C RNAseH = test: Oligonucleotide-directed RNAseH cleavage assay, HBV genotype C; assay type: biochemical, Hepatitis B virus; conditions: class by concentration giving inhibition (10, 20, 60 μM)
Description: (§1) For the oligonucleotide-directed RNAseH cleavage assay (Gong et al., 2001), 6 μl protein extract (typical protein concentration 2.8 mg/ml) was mixed with 0.5 μg internally ^32P-labeled DRF+ RNA (nucleotides 2401-2605 of the duck HBV genome plus 60 nucleotides of flanking sequences from pBluescript) and 3 μg oligonucleotide D2507- or its corresponding negative control D2526+ on ice in 20 μl under the conditions in Table 1. Some reactions in FIG. 5 employed oligonucleotide D2543M-Sal or its D2453+ negative control as indicated. The reactions were incubated at 42° C. for 90 min. and terminated by addition of Laemmli protein loading buffer and boiling. The samples were resolved by 12% SDS-PAGE, the gels were stained with Coomassie blue to monitor protein loading, and labeled RNA was detected by autoradiography. Candidate inhibitors were dissolved in DMSO and added at the indicated concentrations during assembly of the reactions. Control reactions lacking the compounds contained DMSO as a vehicle control. The RNAseH autoradiograms were scanned and quantified with ImageJ. The oligonucleotides were: D2526+([…]; SEQ ID NO:8), D2507-([…]; SEQ ID NO:9), D2453+([…]; SEQ ID NO:10), and D2543M-Sal ([…]; SEQ ID NO:11).
Incremental improvements were developed in extraction of the HBV RNAseH from the bacterial cell pellets since the data were generated for Examples 1 and 2. Key among these was shifting from using a cup sonicator to a probe sonicator and reducing the duration of the sonication period from 3×60 second bursts to 3×20 second bursts. When the […] genotype C clone that had inconsistent activity under the old extraction conditions (FIG. 6C) was isolated under these conditions, it became consistently and robustly active (FIG. 16).

human RNAseH1 = target: T2, human RNAseH1 (Homo sapiens, UniProt O60930); test: Oligonucleotide-directed RNAseH assay, recombinant human RNAseH1; assay type: biochemical; conditions: class by concentration giving inhibition (10, 20, 60 μM)
T2 construct: hexahistidine (N); made in house; host or cells: E. coli BL21 codon+
T2 sequence (O60930 1-286): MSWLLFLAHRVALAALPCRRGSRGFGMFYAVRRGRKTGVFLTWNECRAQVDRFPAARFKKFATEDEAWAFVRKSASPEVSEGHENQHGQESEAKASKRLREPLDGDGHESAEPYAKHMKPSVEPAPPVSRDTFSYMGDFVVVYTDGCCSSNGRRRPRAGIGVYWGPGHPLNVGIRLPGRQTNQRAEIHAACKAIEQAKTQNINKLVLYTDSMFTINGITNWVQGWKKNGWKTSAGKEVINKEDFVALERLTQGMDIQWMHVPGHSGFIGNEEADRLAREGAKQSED
Description: as §1
Therefore, the inventors cloned the human RNAseH1 with an N-terminal hexahistidine tag, expressed it in E. coli, and purified the protein by nickel affinity chromatography. […] This enzyme was active in the oligonucleotide-directed and fluorescent RNAseH assays (FIG. 10B and data not shown). To determine how inhibition of human RNAseH1 compared to inhibition of the HBV RNAseH, the inventor titrated the RNAaseH1 enzyme to yield similar levels of activity as the HBV enzyme, and then the inventor directly compared the ability of compounds #8-12 to inhibit human RNAseH1 and HRHPL at 10 μM. […] Therefore, it is possible to inhibit the HBV RNAseH without inhibiting human RNAseH1.
(§2) Oligonucleotide-directed RNAseH cleavage assays (Gong et al., 2001) were performed as described (Tavis et al., 2013). Briefly, HBV RNAseH extracts were mixed with a 264 nt-long internally ^32P-labeled RNA plus an excess of a complementary DNA oligonucleotide or its inverse-complement as a negative control in a final concentration of 65 mM Tris pH 8.0, 190 mM NaCl, 5 mM MgCl2, 5 mM dTT, 0.05% NP40, and 6% glycerol. βTJ was dissolved in DMSO and added at the indicated concentrations; the final concentration of DMSO in all reactions was 1%. The reactions were incubated at 42° C. for 90 min. and terminated by addition of Laemmli protein electrophoresis buffer. The samples were resolved by SDS-PAGE, labeled RNA was detected by autoradiography, the autoradiograms were scanned, and the RNA cleavage products were quantified with ImageJ (National Institutes of Health). IC50 values were calculated by non-linear regression using GraphPad Prism (GraphPad Software, Inc.).

HBV [2] = test: HBV genomic replication assays (Table 2); assay type: cell-based, Hepatitis B virus; conditions: class by active concentration
Description: Huh7 cells were maintained in Dulbecco's modified Eagle's medium with 10% fetal bovine serum at 37° C. in 5% CO2. Cells were seeded into 60 mm dishes and transfected at 70% confluency with 2.6 μg of plasmids using TransIT-LT1 (Mirus, Inc.). Test compounds were added the morning following transfection at 10 or 50 μM, and fresh medium containing the compounds was provided every 1-2 days. Four or five days post-transfection HBV cores were isolated by lysis of the cells in 10 mM Tris pH 7.5, 1 mM EDTA, 0.25% NP40, 50 mM NaCl, and 8% sucrose followed by sedimentation through a 30% sucrose cushion as described (Travis, et al., 1998). Viral DNAs were isolated from cytoplasmic core particle preparations by proteinase K digestion followed by phenol/chloroform extraction as described (Gong et al., 2001). Duplicate aliquots of the nucleic acids were treated with 2 U E. coli DNAse-free RNAseH (Invitrogen) at 37° C. for 30 min. or were mock treated. The nucleic acid samples were resolved by electrophoresis on 1.2% agarose gels and detected by Southern blotting with ^32P-labeled HBV DNA as a probe. […]

HBV [3] = test: Quantitative PCR screen of HBV plus-polarity DNA accumulation; assay type: cell-based, Hepatitis B virus; conditions: 60, 20, or 6.7 μM; DNA isolated day 3
Description: This assay was employed to screen 7 compounds for their ability to suppress HBV replication (FIG. 17). […] Fresh medium containing compound was provided on days 1 and 2, and capsid-associated HBV DNAs were isolated on day 3. HBV plus-strand DNAs were measured using the cross-gap TaqMan PCR assay.
Plus-polarity preferential quantitative TaqMan PCR for the HBV DNA was conducted employing forward primer […] […] PCR was conducted on purified HBV capsid-derived nucleic acids for 40 cycles of 95° C. for 15 sec. and 65° C. for 1 min. employing the TaqMan universal PCR master mix (Applied Biosystems). Results were standardized against serial dilutions of cloned HBV DNA. The EC50 was estimated by linear regression of the real-time PCR data.

rat hepatocytes = conditions: cited from earlier work
[4] = mice and rats, doses 10 to 58 times those used in humans; cited from earlier work
HBV genotype H RNAseH = test: Oligonucleotide-directed RNAseH cleavage assay, HBV genotype H; assay type: biochemical, Hepatitis B virus; conditions: 10 μM; ± standard deviation, 3 to 7 replicates
Description: as §1, §2

[5] = target: T3, chimeric HBV:HIV RNAseH HHC1 (Hepatitis B virus genotype D subtype ayw, UniProt P03156, DELINS787-795[…]/INS679M); test: Oligonucleotide-directed RNAseH cleavage assay, chimeric HHC1; assay type: biochemical; conditions: 10 μM; ± standard deviation, 3 to 7 replicates
T3 construct: HHC1 is an HRHPL derivative; made in house; host or cells: E. coli BL21 codon+
Excerpt: pCMV-HBV-LE-(CMV-HBV) is an HBV over-length genomic expression vector containing 1.2 copies of the HBV(adw2) genome (Genbank X02763.1) downstream of the CMV promoter cloned into pBS (Promega). Surface protein expression from this vector is ablated by mutating the preS and S open reading frames. pCMV-HBV(genotype D) is an analogous HBV genomic expression construct and was a gift from Dr. Shuping Tong (Brown University). For bacterial expression, codon-optimized cDNA sequences for HRHPL (genotypes A, B, C, D, and H), and noncodon-optimized sequences for HHC1 and HHC2 were cloned by gene synthesis (Genscript) between the NcoI and EcoRI sites into pTrcHis2B (Invitrogen) with a C-terminal hexahistidine tag. HRHPL contains HBV genotype D (Genbank V01460) polymerase residues 684-845. HHC1 is an HRHPL derivative in which HBV polymerase residues 800-808 were replaced with HIV residues corresponding to the RNAseH helix D ([…]; SEQ ID NO:6). HHC2 is an HRHPL derivative in which HBV polymerase residues 800-845 were replaced with HIV residues corresponding to the RNAseH helix D to the C-terminus ([…]; SEQ ID NO:7). The human RNAseH1 gene (NP_002927.2) was cloned with an N-terminal hexahistidine-tag between the BamHI and XhoI sites of pRsetB (Invitrogen) by gene synthesis.
as §1

[6] = target: HCV RNA-directed RNA polymerase (Hepatitis C virus genotype 1a, UniProt P27958); test: Primed homopolymeric RNA (poly-G) synthesis assay; assay type: biochemical; conditions: 10 μM
Description: FIGS. 9A-C. Specificity of anti-HBV RNAseH compounds. (FIG. 9A) Inhibition of HBV genotype D RNAseH by irrelevant compounds at 10 μM in the oligonucleotide-directed RNAseH assay. Compound #4 was employed as an example HBV RNAseH inhibitor. […] The ability of compounds #5, 6 and 8 to inhibit production of poly-G by the HCV RNA-directed RNA polymerase was measured in a primed homopolymeric RNA synthesis assay (Cao, et al., 2011. The compounds were employed at 10 μM. DMSO, vehicle control. (FIG. 9C) Dose-responsiveness of HBV RNAseH inhibition. The effects of compounds #6, 8, and 12 on the RNAseH activity of HRHPL (genotype D) were measured at concentrations ranging from 0.5 to 50 μM. The dose-response profile is plotted for compound #12.

[7] = rat hepatocytes, Nakagawa and Tayama, 1998

## CC(C)c1ccccc(=O)c1O [α-thuaplicin, reference compound]
HIV-1 RNAseH
  IC50: 50 µM

## CC(C)c1cccc(O)c(=O)c1 [Compound 47, beta-thujaplicin]
[1]
  Activity vs. HBV Biochemical vs. gtD: +++ (+++ inhibition at 10 μM)
HBV genotype C RNAseH
  Activity vs. HBV Biochemical vs. gtC: − (− no inhibition at 60 μM)
Human RNAseH1
  Activity vs. human RNAseH1: − (− no inhibition at 60 μM)
HBV [2]
  Activity vs. HBV Genomic Replication: − (− no activity at 60 μM)
HBV [3]
  Suppression of HBV plus-polarity DNA accumulation: did not suppress HBV plus-polarity DNA accumulation
Rat hepatocytes; [7]
  Mitochondrial toxicity: mitochondrial toxicity has been reported

## O=c1cccccc1 [tropone, reference compound]
Rat hepatocytes; [7]
  Mitochondrial toxicity: mitochondrial toxicity has been reported

## Nc1ccn([C@H]2CS[C@@H](CO)O2)c(=O)n1 [Lamivudine, 2′,3′-dideoxy-3′-thiacytidine]
[4]
  Carcinogenicity or mutagenicity: no evidence of carcinogenicity or mutagenicity

## Manicol [Compound 56]
[1]
  Activity vs. HBV Biochemical vs. gtD: +++ (+++ inhibition at 10 μM)
HBV genotype C RNAseH
  Activity vs. HBV Biochemical vs. gtC: +++ (+++ inhibition at 10 μM)
Human RNAseH1
  Activity vs. human RNAseH1: − (− no inhibition at 60 μM)
HBV [2]
  Activity vs. HBV Genomic Replication: + (+, activity detectable at >10 μM)
HBV [3]
  Suppression of HBV plus-polarity DNA accumulation: inhibited accumulation of HBV plus-polarity DNA to lesser extents
HIV-1 RNAseH
  IC50: 60 µM

## CCOC(=O)c1sc(NC(=O)CSc2nnc(Cc3ccccc3)o2)c(C#N)c1C [Compound 6]
[1]
  Residual activity at 10 uM, Genotype D: 40 ± 16 Percent DMSO control
  Activity vs. HBV Biochemical vs. gtD: + (+ inhibition at 60 μM)
[1]; at 50 μM
  Inhibition: 75%
[1]; between 3 and 40 μM
  Inhibition plateau: 20-30%
HBV genotype H RNAseH
  Residual activity at 10 uM, Genotype H: 81 ± 24 Percent DMSO control
[5]
  Residual activity at 10 uM, HHC1: 55 ± 23 Percent DMSO control
HBV [2]
  Activity vs. HBV Genomic Replication: − (− no activity at 60 μM)
[6]
  Inhibition of poly-G production by HCV RNA polymerase: do not significantly inhibit

## Cc1cc(C)c(C#N)c(=N)o1 [Compound 5]
[1]
  Residual activity at 10 uM, Genotype D: 42 ± 15 Percent DMSO control
  Activity vs. HBV Biochemical vs. gtD: + (+ inhibition at 60 μM)
HBV genotype H RNAseH
  Residual activity at 10 uM, Genotype H: 76 ± 14 Percent DMSO control
[5]
  Residual activity at 10 uM, HHC1: 36 ± 6 Percent DMSO control
HBV [2]
  Activity vs. HBV Genomic Replication: − (− no activity at 60 μM)
[6]
  Inhibition of poly-G production by HCV RNA polymerase: do not significantly inhibit

## O=c1cccccc1O [Compound 53, Tropolone]
[1]
  Activity vs. HBV Biochemical vs. gtD: ++ (++ inhibition at 20 μM)
Human RNAseH1
  Activity vs. human RNAseH1: − (− no inhibition at 60 μM)
HBV [2]
  Activity vs. HBV Genomic Replication: − (− no activity at 60 μM)
HBV [3]
  Suppression of HBV plus-polarity DNA accumulation: inhibited accumulation of HBV plus-polarity DNA to lesser extents
Rat hepatocytes
  Mitochondrial toxicity: mitochondrial toxicity has been reported

## CC(C)c1ccc(O)c(=O)cc1 [Compound 48]
HBV [3]
  Suppression of HBV plus-polarity DNA accumulation: did not suppress HBV plus-polarity DNA accumulation
